Results from PMC12152147, “DDB1 engagement defines the selectivity of S656 analogs for cyclin K degradation over CDK inhibition” (EMBO Reports, 2025).
Several values for one entry are separate records, joined by “and”; a condition that tells them apart may be missing. Equal values may be shown once. Read-outs that look alike come from different tables or passages of the source.

Key:
CDK1 = biological target: T1, CDK1 (Homo sapiens, UniProt P06493); assay: CDK1 in vitro kinase activity, single concentration 1 μM; format: biochemical
T1 construct: purchased BPS Bioscience 79597
T1 sequence (P06493 whole entry): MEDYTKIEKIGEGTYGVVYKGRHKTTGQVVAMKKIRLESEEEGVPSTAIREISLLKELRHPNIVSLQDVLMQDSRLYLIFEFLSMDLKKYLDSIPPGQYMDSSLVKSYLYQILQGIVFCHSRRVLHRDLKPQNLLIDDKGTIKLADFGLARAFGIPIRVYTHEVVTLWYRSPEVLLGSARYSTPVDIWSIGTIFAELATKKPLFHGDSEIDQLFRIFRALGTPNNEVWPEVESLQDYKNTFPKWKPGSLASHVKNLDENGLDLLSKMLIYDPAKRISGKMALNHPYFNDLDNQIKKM
T1 sequence (P14635 whole entry partner): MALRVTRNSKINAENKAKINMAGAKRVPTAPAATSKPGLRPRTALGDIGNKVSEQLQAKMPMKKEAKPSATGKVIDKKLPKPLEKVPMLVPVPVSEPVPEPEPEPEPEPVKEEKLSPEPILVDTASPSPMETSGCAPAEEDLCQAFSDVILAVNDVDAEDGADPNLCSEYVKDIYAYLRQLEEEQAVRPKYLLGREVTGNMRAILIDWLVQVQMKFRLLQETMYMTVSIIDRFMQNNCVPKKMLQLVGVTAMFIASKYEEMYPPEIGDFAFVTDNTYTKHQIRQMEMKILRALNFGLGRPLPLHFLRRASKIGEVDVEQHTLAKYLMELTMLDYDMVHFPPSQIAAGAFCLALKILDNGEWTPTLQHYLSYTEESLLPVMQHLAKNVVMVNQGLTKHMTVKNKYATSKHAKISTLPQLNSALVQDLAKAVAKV
Procedure: (§1) Kinase activity was assessed using the kinase assay kits from BPS Bioscience for CDK1, CDK9 and CDK12 with Kinase Glo MAX in duplicates. Compounds were tested at a single concentration of 1 μM for CDK1 and CDK9 activity, and in a dilution ranging from 0.64 nM to 50 μM for CDK12 activity. Chemiluminescence was read using the Neo Synergy BioTek plate reader.

primary AML specimens = assay: Dose-response assays in primary AML specimens (6 days, CellTiterGlo); format: cell-based, human; settings: Homo sapiens, 144 h
Outline: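 Primary AML cells in IMDM/15% BIT with SCF, FLT3L, IL3, G-CSF, SR1 and UM729 were exposed to 8-point 1:4 dilutions (10 μM to 0.5 nM) for 6 days. Viability came from CellTiterGlo luminescence, with % inhibition versus DMSO (0.1%) fitted by nonlinear regression.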

[1] = system: OCI-AML5 cells expressing shRNA targeting CUL4A or CUL4B; assay: Dose response in OCI-AML5 expressing shRNAs targeting CUL4A, CUL4B or control; format: cell-based, H. sapiens
CDK9/CyclinT = biological target: T2, CDK9/CyclinT (Homo sapiens, UniProt P50750); assay: CDK9/CyclinT in vitro kinase activity, single concentration 1 μM; format: biochemical
T2 construct: purchased BPS Bioscience 79628
T2 sequence (P50750 whole entry): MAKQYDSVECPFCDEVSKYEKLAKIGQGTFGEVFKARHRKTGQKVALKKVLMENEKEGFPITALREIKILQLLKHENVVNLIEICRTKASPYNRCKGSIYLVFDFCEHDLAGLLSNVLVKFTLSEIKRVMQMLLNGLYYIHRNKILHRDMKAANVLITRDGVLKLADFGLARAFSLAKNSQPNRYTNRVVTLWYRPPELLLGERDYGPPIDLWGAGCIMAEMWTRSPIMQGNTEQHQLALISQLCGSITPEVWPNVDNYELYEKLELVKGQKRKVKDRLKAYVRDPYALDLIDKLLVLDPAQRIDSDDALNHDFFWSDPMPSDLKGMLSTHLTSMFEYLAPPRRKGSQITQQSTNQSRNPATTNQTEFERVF
T2 sequence (O60563 whole entry partner): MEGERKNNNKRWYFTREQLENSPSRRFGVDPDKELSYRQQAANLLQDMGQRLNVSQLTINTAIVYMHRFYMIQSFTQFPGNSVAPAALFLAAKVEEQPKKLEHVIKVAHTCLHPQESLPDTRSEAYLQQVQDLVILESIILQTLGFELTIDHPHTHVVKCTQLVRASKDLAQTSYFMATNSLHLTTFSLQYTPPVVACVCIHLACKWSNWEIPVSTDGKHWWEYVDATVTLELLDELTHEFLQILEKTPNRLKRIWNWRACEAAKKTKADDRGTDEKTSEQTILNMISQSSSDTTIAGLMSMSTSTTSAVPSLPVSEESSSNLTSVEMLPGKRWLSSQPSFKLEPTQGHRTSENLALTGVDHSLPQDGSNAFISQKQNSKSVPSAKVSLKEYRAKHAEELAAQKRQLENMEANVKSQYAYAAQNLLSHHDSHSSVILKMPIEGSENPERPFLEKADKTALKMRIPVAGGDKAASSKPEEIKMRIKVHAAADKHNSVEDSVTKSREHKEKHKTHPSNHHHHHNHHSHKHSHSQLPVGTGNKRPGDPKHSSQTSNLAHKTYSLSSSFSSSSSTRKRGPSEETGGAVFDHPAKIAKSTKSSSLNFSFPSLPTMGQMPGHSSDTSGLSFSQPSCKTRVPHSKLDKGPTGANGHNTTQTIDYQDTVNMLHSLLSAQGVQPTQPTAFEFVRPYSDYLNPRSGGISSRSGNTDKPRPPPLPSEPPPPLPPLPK
Procedure: as §1

[2] = system: OCI-AML5 cells expressing shRNAs targeting CDK1, 2, 4, 7, 9, cyclin K; assay: Dose response in OCI-AML5 expressing shRNAs targeting CDK1, 2, 4, 7, 9, cyclin K or control; format: cell-based, H. sapiens
OCI-AML5 cells = assay: Dose-response proliferative assay in OCI-AML5 (4 days, CellTiterGlo); format: cell-based, H. sapiens
Outline: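 Viability assessed after 4 days of compound exposure at 37 °C, 5% CO2. Compounds tested as 8 dilutions (1:4, 10 μM to 0.5 nM) on 300 OCI-AML5 cells/well grown in αMEM with 10% heat-inactivated FBS and 10 ng/mL GM-CSF.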

CDK12/Cyclin K = biological target: T3, CDK12/Cyclin K (Homo sapiens, UniProt Q9NYV4); assay: CDK12/CyclinK in vitro kinase assay (BPS kit, Kinase Glo MAX); format: biochemical; settings: for in vitro inhibition of CDK12/Cyclin K activity: in % (unit assumed)
T3 construct: purchased BPS Bioscience 78298
T3 sequence (Q9NYV4 whole entry): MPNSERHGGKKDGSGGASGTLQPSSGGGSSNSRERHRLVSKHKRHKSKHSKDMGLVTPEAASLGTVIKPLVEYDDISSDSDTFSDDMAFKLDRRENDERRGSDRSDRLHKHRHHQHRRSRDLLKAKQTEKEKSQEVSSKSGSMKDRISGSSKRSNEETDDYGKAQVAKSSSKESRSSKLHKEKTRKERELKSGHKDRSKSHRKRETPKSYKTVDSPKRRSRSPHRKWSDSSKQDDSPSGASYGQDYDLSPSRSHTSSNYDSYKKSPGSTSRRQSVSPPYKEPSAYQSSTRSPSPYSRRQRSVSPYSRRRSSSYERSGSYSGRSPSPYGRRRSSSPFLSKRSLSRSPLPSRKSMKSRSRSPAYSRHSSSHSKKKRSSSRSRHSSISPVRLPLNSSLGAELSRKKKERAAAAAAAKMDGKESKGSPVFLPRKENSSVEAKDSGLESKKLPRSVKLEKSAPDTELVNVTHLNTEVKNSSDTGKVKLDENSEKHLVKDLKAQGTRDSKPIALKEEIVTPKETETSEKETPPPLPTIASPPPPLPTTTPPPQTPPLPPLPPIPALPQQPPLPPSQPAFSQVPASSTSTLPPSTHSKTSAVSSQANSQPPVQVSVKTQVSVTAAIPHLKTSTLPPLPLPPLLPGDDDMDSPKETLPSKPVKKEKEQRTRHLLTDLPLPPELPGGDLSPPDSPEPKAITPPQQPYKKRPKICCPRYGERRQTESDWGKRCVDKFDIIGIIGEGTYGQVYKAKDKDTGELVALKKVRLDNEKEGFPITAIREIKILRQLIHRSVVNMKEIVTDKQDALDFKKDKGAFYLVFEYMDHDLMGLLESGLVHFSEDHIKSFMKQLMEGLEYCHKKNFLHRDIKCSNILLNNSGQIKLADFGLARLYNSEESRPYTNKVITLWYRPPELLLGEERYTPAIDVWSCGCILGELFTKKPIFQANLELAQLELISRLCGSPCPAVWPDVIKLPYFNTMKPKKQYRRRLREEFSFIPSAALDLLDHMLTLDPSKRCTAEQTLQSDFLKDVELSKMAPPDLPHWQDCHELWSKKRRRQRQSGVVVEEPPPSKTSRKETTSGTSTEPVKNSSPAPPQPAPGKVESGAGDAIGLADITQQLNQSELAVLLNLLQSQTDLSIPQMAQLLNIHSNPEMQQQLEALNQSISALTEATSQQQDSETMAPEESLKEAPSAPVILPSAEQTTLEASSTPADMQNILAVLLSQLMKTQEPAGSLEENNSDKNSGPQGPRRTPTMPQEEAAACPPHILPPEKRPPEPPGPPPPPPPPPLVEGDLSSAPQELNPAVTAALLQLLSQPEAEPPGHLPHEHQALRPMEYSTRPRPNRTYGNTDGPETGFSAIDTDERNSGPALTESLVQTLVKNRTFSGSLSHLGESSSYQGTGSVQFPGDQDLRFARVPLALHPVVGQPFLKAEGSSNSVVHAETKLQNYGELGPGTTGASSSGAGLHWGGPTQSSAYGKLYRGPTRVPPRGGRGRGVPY
T3 sequence (O75909 whole entry partner): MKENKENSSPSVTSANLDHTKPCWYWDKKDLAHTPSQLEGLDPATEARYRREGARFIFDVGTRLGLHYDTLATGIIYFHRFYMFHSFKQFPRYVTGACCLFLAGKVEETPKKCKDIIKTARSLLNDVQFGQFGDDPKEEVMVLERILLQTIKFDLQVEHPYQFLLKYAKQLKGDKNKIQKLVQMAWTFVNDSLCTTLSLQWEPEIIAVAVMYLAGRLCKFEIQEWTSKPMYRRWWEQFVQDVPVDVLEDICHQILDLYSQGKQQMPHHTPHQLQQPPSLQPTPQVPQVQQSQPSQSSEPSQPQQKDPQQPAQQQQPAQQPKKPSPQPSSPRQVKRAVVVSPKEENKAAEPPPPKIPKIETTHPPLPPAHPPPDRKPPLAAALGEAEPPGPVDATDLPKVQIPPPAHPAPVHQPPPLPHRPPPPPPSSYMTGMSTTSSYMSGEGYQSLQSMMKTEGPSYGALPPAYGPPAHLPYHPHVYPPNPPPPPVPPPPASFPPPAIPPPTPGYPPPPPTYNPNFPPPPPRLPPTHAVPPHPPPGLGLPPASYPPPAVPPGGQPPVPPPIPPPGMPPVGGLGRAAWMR
Procedure: as §1

cyclin KeGFP = assay: Cyclin KeGFP reporter system (eGFP/mCherry MFI by flow cytometry);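 as to % degradation cyclin K-eGFP: 10 μM compound for 3 h relative to DMSO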; format: cell-based, H. sapiens
Outline: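 Degradation read as eGFP-to-mCherry MFI ratio relative to DMSO controls, from flow cytometry of the selected G7 clone of OCI-AML5 cells transduced with the cyclin KeGFP reporter.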

## CN(C)c1ccc(CC(=O)Nc2ncc(SCc3cccnc3)s2)cc1 [S656]
CDK1; 1 μM
  in vitro inhibitory activity for CDK1: displays in vitro inhibitory activity
CDK1; single concentration 1 μM
  inhibition at 1 µM: 70%
Primary AML specimens; primary AML specimen 03H109, 6 days, read-out: IC50
  IC50: 0.761 µM
Primary AML specimens; primary AML specimen 04H055, 6 days, read-out: IC50
  IC50: 1.04 µM
Primary AML specimens; primary AML specimen 04H096, 6 days, read-out: IC50
  IC50: 0.846 µM
Primary AML specimens; primary AML specimen 04H138, 6 days, read-out: IC50
  IC50: 1.99 µM
Primary AML specimens; primary AML specimen 05H113, 6 days, read-out: IC50
  IC50: 0.897 µM
Primary AML specimens; primary AML specimen 05H149, 6 days, read-out: IC50
  IC50: 1.38 µM
Primary AML specimens; primary AML specimen 05H193, 6 days, read-out: IC50
  IC50: 0.999 µM
Primary AML specimens; primary AML specimen 06H088, 6 days, read-out: IC50
  IC50: 1.27 µM
Primary AML specimens; primary AML specimen 06H117, 6 days, read-out: IC50
  IC50: 0.983 µM
Primary AML specimens; primary AML specimen 06H151, 6 days, read-out: IC50
  IC50: 0.683 µM
Primary AML specimens; primary AML specimen 07H003, 6 days, read-out: IC50
  IC50: 2.19 µM
Primary AML specimens; primary AML specimen 07H131, 6 days, read-out: IC50
  IC50: 2.68 µM
Primary AML specimens; primary AML specimen 07H144, 6 days, read-out: IC50
  IC50: 0.999 µM
Primary AML specimens; primary AML specimen 07H155, 6 days, read-out: IC50
  IC50: 2.44 µM
Primary AML specimens; primary AML specimen 08H018, 6 days, read-out: IC50
  IC50: 2.21 µM
Primary AML specimens; primary AML specimen 08H021, 6 days, read-out: IC50
  IC50: 1.01 µM
Primary AML specimens; primary AML specimen 08H056, 6 days, read-out: IC50
  IC50: 2.13 µM
Primary AML specimens; primary AML specimen 08H063, 6 days, read-out: IC50
  IC50: 2.38 µM
Primary AML specimens; primary AML specimen 08H085, 6 days, read-out: IC50
  IC50: 1.01 µM
Primary AML specimens; primary AML specimen 08H108, 6 days, read-out: IC50
  IC50: 0.826 µM
Primary AML specimens; primary AML specimen 08H118, 6 days, read-out: IC50
  IC50: 0.887 µM
Primary AML specimens; primary AML specimen 09H016, 6 days, read-out: IC50
  IC50: 0.974 µM
Primary AML specimens; primary AML specimen 09H070, 6 days, read-out: IC50
  IC50: 2.24 µM
Primary AML specimens; primary AML specimen 10H014, 6 days, read-out: IC50
  IC50: 0.852 µM
Primary AML specimens; primary AML specimen 10H046, 6 days, read-out: IC50
  IC50: 0.972 µM
Primary AML specimens; primary AML specimen 10H107, 6 days, read-out: IC50
  IC50: 1.56 µM
Primary AML specimens; primary AML specimen 10H127, 6 days, read-out: IC50
  IC50: 1.44 µM
Primary AML specimens; primary AML specimen 10H161, 6 days, read-out: IC50
  IC50: 1.17 µM
Primary AML specimens; primary AML specimen 10H174, 6 days, read-out: IC50
  IC50: 0.887 µM
Primary AML specimens; primary AML specimen 11H008, 6 days, read-out: IC50
  IC50: 1.45 µM
Primary AML specimens; primary AML specimen 11H019, 6 days, read-out: IC50
  IC50: 1.09 µM
Primary AML specimens; primary AML specimen 11H170, 6 days, read-out: IC50
  IC50: 2.33 µM
Primary AML specimens; primary AML specimen 11H217, 6 days, read-out: IC50
  IC50: 1.24 µM
Primary AML specimens; primary AML specimen 11H232, 6 days, read-out: IC50
  IC50: 1.13 µM
Primary AML specimens; primary AML specimen 12H033, 6 days, read-out: IC50
  IC50: 2.38 µM
Primary AML specimens; primary AML specimen 12H055, 6 days, read-out: IC50
  IC50: 1.39 µM
Primary AML specimens; primary AML specimen 12H148, 6 days, read-out: IC50
  IC50: 1.48 µM
Primary AML specimens; primary AML specimen 13H053, 6 days, read-out: IC50
  IC50: 2.19 µM
Primary AML specimens; primary AML specimen 15H045, 6 days, read-out: IC50
  IC50: 0.68 µM
Primary AML specimens; primary AML specimen 17H065, 6 days, read-out: IC50
  IC50: 1.55 µM
Primary AML specimens; read-out: median IC50 in a panel of 40 primary AMLs, 6 days
  IC50: 1.21 µM
[1]; OCI-AML5, 4 days
  potency upon CUL4A or CUL4B downregulation (for SNS-032, THZ531 also DDB1 depletion): impaired
[1]; ratio of IC50 in shCUL4A vs shCTRL OCI-AML5 cells
  Ratio shCUL4A/shCTRL: 2.79
CDK9/CyclinT; 1 μM
  in vitro inhibitory activity for CDK9: displays in vitro inhibitory activity
CDK9/CyclinT; single concentration 1 μM
  inhibition at 1 µM: 59%
[2]; Homo sapiens, OCI-AML-5, 96 h, OCI-AML5, 4 days, read-out: IC50, sh CDK1
  IC50: 0.499 µM
[2]; Homo sapiens, OCI-AML-5, 96 h, OCI-AML5, 4 days, read-out: IC50, sh CDK2
  IC50: 0.842 µM
[2]; Homo sapiens, OCI-AML-5, 96 h, OCI-AML5, 4 days, read-out: IC50, sh CDK4
  IC50: 0.577 µM
[2]; Homo sapiens, OCI-AML-5, 96 h, OCI-AML5, 4 days, read-out: IC50, sh CDK7
  IC50: 0.791 µM
[2]; Homo sapiens, OCI-AML-5, 96 h, OCI-AML5, 4 days, read-out: IC50, sh CDK9
  IC50: 0.548 µM
[2]; Homo sapiens, OCI-AML-5, 96 h, OCI-AML5, 4 days, read-out: IC50, sh Cyclin K
  IC50: 0.175 µM
[2]; Homo sapiens, OCI-AML-5, 96 h, OCI-AML5, 4 days, read-out: IC50, sh ctrl
  IC50: 0.756 µM
[2]; Homo sapiens, OCI-AML-5, OCI-AML5 expressing shRNA CCNK (cyclin K), read-out: IC50 shRNA CCNK
  IC50: 0.194 µM
[2]; Homo sapiens, OCI-AML-5, OCI-AML5 expressing shRNA CDK1, read-out: IC50 shRNA CDK1
  IC50: 0.478 µM
[2]; Homo sapiens, OCI-AML-5, OCI-AML5 expressing shRNA CDK2, read-out: IC50 shRNA CDK2
  IC50: 0.794 µM
[2]; Homo sapiens, OCI-AML-5, OCI-AML5 expressing shRNA CDK4, read-out: IC50 shRNA CDK4
  IC50: 0.69 µM
[2]; Homo sapiens, OCI-AML-5, OCI-AML5 expressing shRNA CDK9, read-out: IC50 shRNA CDK9
  IC50: 0.548 µM
[2]; OCI-AML5, 4 days, read-out: IC50, sh CDK1
  IC50: 0.48 µM
[2]; OCI-AML5, 4 days, read-out: IC50, sh CDK2
  IC50: 0.928 µM and 0.685 µM
[2]; OCI-AML5, 4 days, read-out: IC50, sh CDK4
  IC50: 0.744 µM and 0.662 µM
[2]; OCI-AML5, 4 days, read-out: IC50, sh CDK7
  IC50: 0.774 µM and 0.662 µM
[2]; OCI-AML5, 4 days, read-out: IC50, sh CDK9
  IC50: 0.589 µM and 0.628 µM
[2]; OCI-AML5, 4 days, read-out: IC50, sh Cyclin K
  IC50: 0.288 µM and 0.186 µM
[2]; OCI-AML5, 4 days, read-out: IC50, sh ctrl
  IC50: 0.713 µM and 0.664 µM
[2]; class from shRNA IC50 profile and cyclin K-eGFP degradation
  Class: mixed 1-2
OCI-AML5 cells; Homo sapiens, OCI-AML-5, 96 h, 4 days incubation, read-out: IC50 OCI-AML5
  IC50: 0.743 µM
OCI-AML5 cells; Homo sapiens, OCI-AML-5, 96 h, OCI-AML5, regular media, 4 days, read-out: S656 IC50, Media
  IC50: 0.949 µM
OCI-AML5 cells; OCI-AML5, regular media, 4 days, read-out: S656 IC50, Media
  IC50: 0.675 µM and 0.712 µM
CDK12/Cyclin K; Log10 (uM) 0.30103
  in vitro inhibition of CDK12/Cyclin K activity: 29.97 and 30.05 and 16.95
CDK12/Cyclin K; Log10 (uM) 1
  in vitro inhibition of CDK12/Cyclin K activity: 64.47 and 62.45 and 59.28
CDK12/Cyclin K; Log10 (uM) 1.69897
  in vitro inhibition of CDK12/Cyclin K activity: 82.67 and 75.84 and 109.95
CDK12/Cyclin K; read-out: IC50, in vitro inhibition of CDK12/Cyclin K activity
  IC50: 6 µM
Cyclin KeGFP; 3 h, 10 μM, compared to DMSO, OCI-AML5 G7 clone
  % cyclin KeGFP degradation: 75%
Cyclin KeGFP; OCI-AML5 G7 clone, 3 h, 10 μM, normalized to DMSO (=100)
  MFI of cyclin KeGFP over mCherry: 23.8 and 23.9 and 23.3 and 23.2 and 22.8
Cyclin KeGFP; cyclin K-eGFP reporter
  % degradation cyclin K-eGFP: 75%
